Measurements reported in US10100042B2, “[5,6]—fused bicyclic antidiabetic compounds” (Merck Sharp & Dohme Corp., priority 2014, dated 2018).

Tests used:
Format in all cases: cell-based
human GPR40 [1] = molecular target: T1, human GPR40 (Homo sapiens (Human), UniProt O14842); test: FLIPR assay, agonist-induced calcium mobilization in GPR40/CHO NFAT BLA cells
Experimental: (§1) Human and mouse GPR40 stable cell-lines were generated in CHO cells stably expressing NFAT BLA (Beta-lactamase). A human GPR40 stable cell-line was generated in HEK cells stably expressing the aequorin expressing reporter. The expression plasmids were transfected using lipofectamine (Life Technologies) following manufacturer's instructions. Stable cell-lines were generated following drug selection.
FLIPR (Fluorimetric Imaging Plate Reader, Molecular Devices) assays were performed to measure agonist-induced calcium mobilization of the stable clones. For the FLIPR assay, one day before assay, GPR40/CHO NFAT BLA cells were seeded into black-wall-clear-bottom 384-well plates (Costar) at 1.4×10e4 cells/20 μL medium/well. The cells were incubated with 20 μl/well of the assay buffer (HBSS, 0.1% BSA, 20 mM HEPES, 2.5 mM probenecid, pH 7.4) containing 8 μM fluo-4, AM, 0.08% pluronic acid at room temperature for 100 minutes. Fluorescence output was measured using FLIPR. Compounds were dissolved in DMSO and diluted to desired concentrations with assay buffer. 13.3 μL/well of compound solution was added.

human GPR40 [2] = molecular target: T1, human GPR40; test: Inositol Phosphate Turnover (IP1) Assay 1 in HEK cells stably expressing human GPR40; conditions: compound transferred via pocket tip
Experimental: as §1
(§2) The assay is performed in 384-well format. HEK cells stably expressing human GPR40 are plated at 15,000 cells per well in growth medium (DMEM/10% fetal calf serum). Cell plates are then incubated 16 hours at 37 degrees in a 5% CO2 incubator.
Measurement of Inositol Phosphate Turnover (IP1) is performed using the CisBio IP-One kit (Part number 62IPAPEB). After the 16 hour incubation, the cells are washed with HEPES buffer and 10 ul of stimulation buffer (prepared as described in the kit) is added to each well. In a separate plate, compounds are diluted in DMSO (400-fold over the final concentration in the assay well) and 25 nl is transferred via pocket tip to the appropriate well in the assay cell plate. The plates are then incubated for 60 minutes at 37 degrees. 10 ul of detection buffer (also prepared as described in the IP-One kit) is added to each well and the plates are incubated for 60 minutes in the dark. The plates are then read in a Perkin Elmer EnVision or equivalent reader able to measure FRET. Fluorescent ratio of emission at 665 and 620 nm is then converted to IP1 concentration by back calculating from an IP1 standard curve prepared at the time of the assay.

human GPR40 [3] = molecular target: T1, human GPR40; test: Inositol Phosphate Turnover (IP1) Assay 2 in HEK cells stably expressing human GPR40; conditions: compound acoustically transferred
Experimental: as §1, §2
Measurement of Inositol Phosphate Turnover (IP1) is performed using the CisBio IP-One kit (Part number 62IPAPEB). After the 16 hour incubation, the cells are washed with HEPES buffer and 10 ul of stimulation buffer (prepared as described in the kit) is added to each well. In a separate plate, compounds are diluted in DMSO (400-fold over the final concentration in the assay well) and 25 nl is acoustically transferred to the appropriate well in the assay cell plate. The plates are then incubated for 60 minutes at 37 degrees. […] The plates are then read in a Perkin Elmer EnVision or equivalent reader able to measure FRET. […]

T1 sequence (O14842 whole entry): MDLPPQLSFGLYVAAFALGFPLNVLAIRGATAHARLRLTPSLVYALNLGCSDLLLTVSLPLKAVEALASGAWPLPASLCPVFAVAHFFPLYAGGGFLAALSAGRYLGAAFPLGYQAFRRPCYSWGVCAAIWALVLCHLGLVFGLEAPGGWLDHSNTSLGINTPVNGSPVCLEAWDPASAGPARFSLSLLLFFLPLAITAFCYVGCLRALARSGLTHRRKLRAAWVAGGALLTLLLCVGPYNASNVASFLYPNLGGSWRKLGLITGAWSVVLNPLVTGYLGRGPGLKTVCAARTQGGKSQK

| Structure (SMILES) | EC50 (human GPR40 [1]) [nM] | EC50 (human GPR40 [2]) [nM] | EC50 (human GPR40 [3]) [nM] |
| --- | --- | --- | --- |
| Cc1cc(F)cc(C)c1-c1cccc(-c2cc3cc(CCC(=O)O)ccc3o2)c1 [Example 13] | 306 | 6210 | – |
| Cc1cccc(C)c1-c1cccc(-c2cc3cc(CCC(=O)O)ccc3o2)c1 [Example 7, 3-(2-(2′,6′-dimethyl-[1,1′-biphenyl]-3-yl)benzofuran-5-yl)propanoic acid] | 203 | 3220 | – |
| COc1cc(C)c(-c2cccc(C3Cc4cc(CCC(=O)O)ccc4O3)c2)c(C)c1 (centres unmarked) [Example 15] | 1490 | – | – |
| COc1ccc(F)c(-c2ccc(C3Cc4ccc([C@@H](CC(=O)O)C5CC5)cc4O3)nc2)c1 (some centres unmarked) [Example 4] | – | 311 | – |
| Cc1cc(C)c(-c2cccc(-c3cc4cc(CCC(=O)O)ccc4o3)c2)c(F)c1 [Example 12] | 716 | > 10000 | – |
| COc1ccc(F)c(-c2ccc(-c3cc4ccc([C@@H](CC(=O)O)C5CC5)cc4o3)nc2)c1 [Example 2] | – | 215 | – |
| COc1cc(C)c(-c2cccc(C3Cc4cc(CCC(=O)O)ccc4O3)c2)c(C)c1 (single isomer, unassigned) [Example 17] | 4320 | 3940 | – |
| COc1ccc(F)c(-c2ccc(-c3cc4ccc([C@H](C5CC5)[C@H](C)C(=O)O)cc4o3)cc2)c1 [Example 1, (2S,3R)-3-cyclopropyl-3-(2-(2′-fluoro-5′-methoxy-[1,1′-biphenyl]-4-yl)benzofuran-6-yl)-2-methylpropanoic acid] | – | 66 | – |
| Cc1cccc(C)c1-c1cccc(C2Cc3cc(CCC(=O)O)ccc3O2)c1 (racemic) [Example 18] | 1220 | – | – |
| COc1cc(-c2ccc(CC3Cc4ccc([C@H](C5CC5)[C@H](C)C(=O)O)cc4O3)c(F)c2)ccn1 (single isomer, unassigned) [Example 6] | – | – | 37 |
| O=C(O)CCc1ccc2oc(-c3cccc(-c4c(Cl)cccc4Cl)c3)cc2c1 [Example 14] | 726 | > 10000 | – |
| COc1cc(C)c(-c2cccc(C3Cc4cc(CCC(=O)O)ccc4O3)c2)c(C)c1 (single isomer, unassigned) [Example 16] | 624 | 5870 | – |
| COc1c(F)cc(-c2cccc(-c3cc4cc(CCC(=O)O)ccc4o3)c2)c(Cl)c1F [Example 11] | 1190 | 4580 | – |
| COc1cc(C)c(-c2cccc(-c3cc4cc(CCC(=O)O)ccc4o3)c2)cc1F [Example 9] | 815 | 3690 | – |
| COc1cc(-c2ccc(CC3Cc4ccc([C@H](C5CC5)[C@H](C)C(=O)O)cc4O3)c(F)c2)ccn1 (single isomer, unassigned) [Example 5] | – | – | 35 |
| O=C(O)CCc1ccc2oc(-c3ccc(C(F)(F)F)cc3)cc2c1 [Example 8] | 20900 | – | – |
| COc1cc(C)c(-c2cccc(-c3cc4cc(CCC(=O)O)ccc4o3)c2)c(C)c1 [Example 10] | 540 | – | – |
| COc1ccc(F)c(-c2ccc(C3Cc4ccc([C@H](C5CC5)[C@H](C)C(=O)O)cc4O3)cc2)c1 (stereo partly drawn) [Example 3, (2S,3R)-3-cyclopropyl-3-(2-(2′-fluoro-5′-methoxy-[1,1′-biphenyl]-4-yl)-2,3-dihydrobenzofuran-6-yl)-2-methylpropanoic acid] | – | 105 | – |
